Measurements published in ChEMBL document CHEMBL3044631, “Synthesis of 2-[4,5-dimethyl-1-(phenylamino)-1H-imidazol-2-ylthio]-N-(thiazole-2-yl)acetamide derivatives and their anticancer activities” (2013).

How the values were obtained:
Assay type in all cases: functional
[1] = test system: Malme-3M; test: Anticancer activity against Homo sapiens (human) MALME-3M cells after 48 hr by SRB assay; settings: for CC50: read-out: LC50 (the source's name)
[2] = test system: K562; test: Anticancer activity against Homo sapiens (human) K562 cells after 48 hr by SRB assay; settings: K562, 48 h; for CC50: read-out: LC50 (the source's name)
[3] = test system: HCT-116; test: Anticancer activity against Homo sapiens (human) HCT116 cells assessed as cell growth promotion at 10 uM after 48 hr by SRB assay
[4] = test system: NCI/ADR-RES; test: Anticancer activity against Homo sapiens (human) NCI/ADR-RES cells assessed as cell growth promotion at 10 uM after 48 hr by SRB assay
[5] = test system: UO-31; test: Anticancer activity against Homo sapiens (human) UO31 cells after 48 hr by SRB assay; settings: UO-31, 48 h; for CC50: read-out: LC50 (the source's name)
[6] = test system: UACC-62; test: Anticancer activity against Homo sapiens (human) UACC62 cells after 48 hr by SRB assay; settings: UACC-62, 48 h
[7] = test system: NCI-H23; test: Anticancer activity against Homo sapiens (human) NCI-H23 cells after 48 hr by SRB assay; settings: NCI-H23, 48 h; for CC50: read-out: LC50 (the source's name)
[8] = test system: A498; test: Anticancer activity against Homo sapiens (human) A498 cells after 48 hr by SRB assay; settings: A498, 48 h
[9] = test system: Hs-578T; test: Anticancer activity against Homo sapiens (human) Hs 578T cells assessed as cell growth promotion at 10 uM after 48 hr by SRB assay
[10] = test system: UACC-257; test: Anticancer activity against Homo sapiens (human) UACC257 cells after 48 hr by SRB assay; settings: UACC-257, 48 h
[11] = test system: NCI-H23; test: Anticancer activity against Homo sapiens (human) NCI-H23 cells assessed as cell growth promotion at 10 uM after 48 hr by SRB assay
[12] = test system: HCC 2998; test: Anticancer activity against Homo sapiens (human) HCC2998 cells assessed as cell growth promotion at 10 uM after 48 hr by SRB assay
[13] = test system: Malme-3M; test: Anticancer activity against Homo sapiens (human) MALME-3M cells assessed as cell growth promotion at 10 uM after 48 hr by SRB assay
[14] = test system: A549; test: Anticancer activity against Homo sapiens (human) A549/ATCC cells after 48 hr by SRB assay; settings: A549, 48 h
[15] = test system: OVCAR-8; test: Anticancer activity against Homo sapiens (human) OVCAR8 cells after 48 hr by SRB assay; settings: OVCAR-8, 48 h; for CC50: read-out: LC50 (the source's name)
[16] = test system: SN12C; test: Anticancer activity against Homo sapiens (human) SN12C cells after 48 hr by SRB assay
[17] = test system: 786-0; test: Anticancer activity against Homo sapiens (human) 786-0 cells after 48 hr by SRB assay; settings: 786-0, 48 h
[18] = test system: SNB-75; test: Anticancer activity against Homo sapiens (human) SNB75 cells after 48 hr by SRB assay; settings: SNB-75, 48 h
[19] = test system: HCT-116; test: Anticancer activity against Homo sapiens (human) HCT116 cells after 48 hr by SRB assay; settings: HCT-116, 48 h
[20] = test system: K562; test: Anticancer activity against Homo sapiens (human) K562 cells assessed as cell growth promotion at 10 uM after 48 hr by SRB assay
[21] = test system: SR; test: Anticancer activity against Homo sapiens (human) SR cells assessed as cell growth promotion at 10 uM after 48 hr by SRB assay
[22] = test system: OVCAR-8; test: Anticancer activity against Homo sapiens (human) OVCAR8 cells assessed as cell growth promotion at 10 uM after 48 hr by SRB assay
[23] = test system: A549; test: Anticancer activity against Homo sapiens (human) A549/ATCC cells assessed as cell growth promotion at 10 uM after 48 hr by SRB assay
[24] = test system: M14; test: Anticancer activity against Homo sapiens (human) M14 cells assessed as cell growth promotion at 10 uM after 48 hr by SRB assay
[25] = test system: T47D; test: Anticancer activity against Homo sapiens (human) T47D cells assessed as cell growth promotion at 10 uM after 48 hr by SRB assay
[26] = test system: BT-549; test: Anticancer activity against Homo sapiens (human) BT549 cells after 48 hr by SRB assay; settings: BT-549, 48 h
[27] = test system: SN12C; test: Anticancer activity against Homo sapiens (human) SN12C cells assessed as cell growth promotion at 10 uM after 48 hr by SRB assay
[28] = test system: SW-620; test: Anticancer activity against Homo sapiens (human) SW620 cells after 48 hr by SRB assay; settings: SW-620, 48 h
[29] = test system: LOX IMVI; test: Anticancer activity against Homo sapiens (human) LOXIMVI cells after 48 hr by SRB assay
[30] = test system: SF-539; test: Anticancer activity against Homo sapiens (human) SF539 cells assessed as cell growth promotion at 10 uM after 48 hr by SRB assay
[31] = test system: 786-0; test: Anticancer activity against Homo sapiens (human) 786-0 cells assessed as cell growth promotion at 10 uM after 48 hr by SRB assay
[32] = test system: KM12; test: Anticancer activity against Homo sapiens (human) KM12 cells assessed as cell growth promotion at 10 uM after 48 hr by SRB assay
[33] = test system: EKVX; test: Anticancer activity against Homo sapiens (human) EKVX cells after 48 hr by SRB assay; settings: for CC50: read-out: LC50 (the source's name)
[34] = test system: HOP-62; test: Anticancer activity against Homo sapiens (human) HOP62 cells assessed as cell growth promotion at 10 uM after 48 hr by SRB assay
[35] = test system: SNB-75; test: Anticancer activity against Homo sapiens (human) SNB75 cells assessed as cell growth promotion at 10 uM after 48 hr by SRB assay
[36] = test system: HT-29; test: Anticancer activity against Homo sapiens (human) HT-29 cells assessed as cell growth promotion at 10 uM after 48 hr by SRB assay

Cc1ccc(Nn2c(SCC(=O)Nc3nc(-c4ccccc4)cs3)nc(C)c2C)cc1
GI50 [1]: 2.48 µM
TGI [1]: 13.6 µM
CC50 [1]: > 100 µM
GI50 [2]: 3.62 µM
TGI [2]: > 100 µM
CC50 [2]: > 100 µM
Activity [3]: 40.22%
Activity [4]: 34.4%
GI50 [5]: 2.89 µM
TGI [5]: > 100 µM
CC50 [5]: > 100 µM
GI50 [6]: 3.15 µM
LC50 [6]: > 100 µM
TGI [6]: > 100 µM
GI50 [7]: 3.42 µM
TGI [7]: > 100 µM
CC50 [7]: > 100 µM
GI50 [8]: 17.4 µM
LC50 [8]: > 100 µM
TGI [8]: > 100 µM
Activity [9]: 105.97%
GI50 [10]: 2.12 µM
LC50 [10]: > 100 µM
TGI [10]: 9.29 µM
Activity [11]: 39.38%
Activity [12]: 91.96%
Activity [13]: 92.03%
GI50 [14]: 3.03 µM
LC50 [14]: > 100 µM
TGI [14]: > 100 µM
GI50 [15]: 3.79 µM
TGI [15]: > 100 µM
CC50 [15]: > 100 µM
GI50 [16]: 3.2 µM
LC50 (concentration killing 50% of cells) [16]: 63 µM
TGI [16]: 14.2 µM
GI50 [17]: 4.41 µM
LC50 (lethal concentration 50) [17]: > 100 µM
TGI [17]: > 100 µM
GI50 [18]: 2.81 µM
LC50 [18]: > 100 µM
TGI [18]: > 100 µM
GI50 [19]: 2.82 µM
LC50 [19]: > 100 µM
TGI [19]: 26.5 µM
Activity [20]: 37.67%
Activity [21]: 72.64%
Activity [22]: 55.49%
Activity [23]: 46.29%
Activity [24]: 76.97%
Activity [25]: 6.48%
GI50 [26]: 3.18 µM
LC50 [26]: 94.7 µM
TGI [26]: 14.1 µM
Activity [27]: 64.31%
GI50 [28]: 8.03 µM
LC50 (concentration killing 50% of cells) [28]: > 100 µM
TGI [28]: > 100 µM
GI50 [29]: 3.32 µM
LC50 (50% lethal concentration) [29]: > 100 µM
TGI [29]: 19.3 µM
Activity [30]: 73.68%
Activity [31]: 82.27%
Activity [32]: 82.85%
GI50 [33]: 1.39 µM
TGI [33]: 5.61 µM
CC50 [33]: > 100 µM
Activity [34]: 67.17%
Activity [35]: 38.33%
Activity [36]: 56.13%

Cc1nc(SCC(=O)Nc2nccs2)n(Nc2ccccc2)c1C
Activity [3]: 93.75%
Activity [4]: 96.1%
Activity [9]: 115.31%
Activity [11]: 97.67%
Activity [12]: 101.96%
Activity [13]: 121.77%
Activity [20]: 101.35%
Activity [21]: 100.2%
Activity [22]: 95.17%
Activity [23]: 98.55%
Activity [24]: 96.9%
Activity [25]: 90.52%
Activity [27]: 94.4%
Activity [30]: 86.84%
Activity [31]: 103.46%
Activity [32]: 109.29%
Activity [34]: 83.75%
Activity [35]: 85.3%
Activity [36]: 99.8%

COc1ccc(Nn2c(SCC(=O)Nc3nc(-c4ccc(Cl)cc4)cs3)nc(C)c2C)cc1
GI50 [1]: 2.9 µM
TGI [1]: > 100 µM
CC50 [1]: > 100 µM
GI50 [2]: 1.58 µM
TGI [2]: > 100 µM
CC50 [2]: > 100 µM
Activity [3]: 27.81%
Activity [4]: 23.11%
GI50 [5]: 2.62 µM
TGI [5]: > 100 µM
CC50 [5]: > 100 µM
GI50 [6]: 3.62 µM
LC50 [6]: > 100 µM
TGI [6]: > 100 µM
GI50 [7]: 1.53 µM
TGI [7]: > 100 µM
CC50 [7]: > 100 µM
GI50 [8]: 2.22 µM
LC50 [8]: > 100 µM
TGI [8]: 56.5 µM
Activity [9]: 86.14%
GI50 [10]: 2.97 µM
LC50 [10]: > 100 µM
TGI [10]: 41.1 µM
Activity [11]: 31.88%
Activity [12]: 54.24%
Activity [13]: 99.15%
GI50 [14]: 3.32 µM
LC50 [14]: > 100 µM
TGI [14]: > 100 µM
GI50 [15]: 4.82 µM
TGI [15]: > 100 µM
CC50 [15]: > 100 µM
GI50 [16]: 2.3 µM
LC50 (concentration killing 50% of cells) [16]: > 100 µM
TGI [16]: 7.52 µM
GI50 [17]: 3.46 µM
LC50 (lethal concentration 50) [17]: > 100 µM
TGI [17]: 18.2 µM
GI50 [18]: 4.8 µM
LC50 [18]: > 100 µM
TGI [18]: > 100 µM
GI50 [19]: 2.12 µM
LC50 [19]: > 100 µM
TGI [19]: 14.1 µM
Activity [20]: 26.88%
Activity [21]: 40.3%
Activity [22]: 43.88%
Activity [23]: 44%
Activity [24]: 62.46%
Activity [25]: 39.43%
GI50 [26]: 6.46 µM
LC50 [26]: > 100 µM
TGI [26]: 82 µM
Activity [27]: 67.16%
GI50 [28]: 4.78 µM
LC50 (concentration killing 50% of cells) [28]: > 100 µM
TGI [28]: > 100 µM
GI50 [29]: 3.02 µM
LC50 (50% lethal concentration) [29]: > 100 µM
TGI [29]: 44.2 µM
Activity [30]: 79.14%
Activity [31]: 59.54%
Activity [32]: 43.08%
GI50 [33]: 1.92 µM
TGI [33]: > 100 µM
CC50 [33]: > 100 µM
Activity [34]: 100.44%
Activity [35]: 56.63%
Activity [36]: 30.12%
